ChEMBL document CHEMBL4261619, “Sentulic acid isolated from Sandoricum koetjape Merr attenuates lipopolysaccharide and interferon gamma co-stimulated nitric oxide production in murine macrophage RAW264 cells” (Bioorg Med Chem Lett, 2018)
Calls of active or inactive are those of the source. The rule behind the calls is not given here.

Experiments:
Assay type in all cases: cell-based
[1] = target: T1, Toll-like receptor 4 (Mus musculus) (UniProt Q9QUK6); experiment: Inhibition of LPS binding to TLR4 in IFNgamma-stimulated mouse RAW264.7 cells assessed as effect on ratio of phosphorylated p38 to total p38 at 100 uM measured after 120 mins by Western blot analysis relative to beta-actin (reference value: 2.2)
T1 sequence (whole entry): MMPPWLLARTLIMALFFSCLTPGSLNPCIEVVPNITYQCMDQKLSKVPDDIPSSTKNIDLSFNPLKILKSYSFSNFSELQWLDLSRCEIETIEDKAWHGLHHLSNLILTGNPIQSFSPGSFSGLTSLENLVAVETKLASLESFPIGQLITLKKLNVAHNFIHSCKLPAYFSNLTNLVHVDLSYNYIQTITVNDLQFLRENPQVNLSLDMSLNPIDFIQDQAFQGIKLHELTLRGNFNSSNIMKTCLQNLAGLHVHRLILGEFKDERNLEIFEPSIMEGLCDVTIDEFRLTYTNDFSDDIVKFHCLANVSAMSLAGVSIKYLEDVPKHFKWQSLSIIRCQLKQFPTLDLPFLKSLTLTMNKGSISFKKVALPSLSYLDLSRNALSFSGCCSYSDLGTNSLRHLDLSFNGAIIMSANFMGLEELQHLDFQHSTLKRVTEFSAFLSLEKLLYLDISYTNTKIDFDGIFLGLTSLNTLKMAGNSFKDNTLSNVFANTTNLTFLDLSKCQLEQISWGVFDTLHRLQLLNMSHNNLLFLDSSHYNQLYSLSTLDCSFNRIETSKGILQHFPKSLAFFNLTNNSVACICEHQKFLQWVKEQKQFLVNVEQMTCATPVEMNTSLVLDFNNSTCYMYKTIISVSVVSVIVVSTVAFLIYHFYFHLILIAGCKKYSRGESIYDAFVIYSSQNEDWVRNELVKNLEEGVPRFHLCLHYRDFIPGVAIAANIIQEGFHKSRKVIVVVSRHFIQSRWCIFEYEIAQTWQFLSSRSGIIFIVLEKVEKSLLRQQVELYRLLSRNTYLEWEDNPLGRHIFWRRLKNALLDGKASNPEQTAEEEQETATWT

[2] = target: T1, Toll-like receptor 4 (Mus musculus); experiment: Inhibition of LPS binding to TLR4 in IFNgamma-stimulated mouse RAW264.7 cells assessed as effect on ratio of phosphorylated ERK to total ERK at 100 uM measured after 15 mins by Western blot analysis relative to beta-actin (reference value: 0.8)
[3] = target: T1, Toll-like receptor 4 (Mus musculus); experiment: Inhibition of LPS binding to TLR4 in IFNgamma-stimulated mouse RAW264.7 cells assessed as suppression of IL-12 mRNA expression at 100 uM by qRT-PCR analysis
[4] = target: T1, Toll-like receptor 4 (Mus musculus); experiment: Inhibition of LPS binding to TLR4 in IFNgamma-stimulated mouse RAW264.7 cells assessed as effect on ratio of phosphorylated JNK to total JNK at 100 uM measured after 15 mins by Western blot analysis relative to beta-actin (reference value: 2)
[5] = target: T1, Toll-like receptor 4 (Mus musculus); experiment: Inhibition of LPS binding to TLR4 in IFNgamma-stimulated mouse RAW264.7 cells assessed as reduction in iNOS expression at 100 uM by Western blot analysis
[6] = target: T1, Toll-like receptor 4 (Mus musculus); experiment: Inhibition of LPS binding to TLR4 in IFNgamma-stimulated mouse RAW264.7 cells assessed as effect on ratio of phosphorylated TAK1 to total TAK1 at 100 uM measured after 120 mins by Western blot analysis relative to beta-actin (reference value: 3)
[7] = system: RAW264.7; experiment: Inhibition of IFNgamma binding to IFNGR in LPS-stimulated mouse RAW264.7 cells assessed as effect on ratio of phosphorylated Stat1 to total Stat1 at 100 uM measured after 120 mins by Western blot analysis relative to beta-actin (reference value: 4.1)

- fold change (FC) [1]: 1.3
- fold change (FC) [2]: 0.8
- inhibition [3]: Active
- fold change (FC) [4]: 1
- inhibition [5]: Active
- fold change (FC) [6]: 0.9
Structure (SMILES): C=C(C)[C@@H]1CC[C@]2(C)[C@H](CC=C3[C@@H]4CC(C)(C)CC[C@]4(C)CC[C@]32C(=O)O)[C@@]1(C)CCC(=O)O
- fold change (FC) [7]: 1.6
